Test system: mouse teratoma cells P19
Assay: Formation of microspheres of suspendedly cultured stem cells (soft agar, MTT dyeing)
Type: cell-based
Settings: 5 μg/mL, P19 cells on 0.5% soft agar, 7 d, compared with DMSO control; FIG. 4
Experimental: 5 g agar was weighed and placed in a flask, then 100 mL of ultra-pure water was added, and the mixture was mixed well, sealed, and then autoclaved for 30 min. In a super clean bench, 9 mL of pre-heated (50-60° C.) serum-free DMEM culture medium was pipetted into a 10 mL centrifuge tube, then 1 mL of uncooled 5% agar was added, and rapidly mixed well with a pipette, resulting in 0.5% agar. 1 mL of 0.5% agar was pipetted into one well of a 6-well plate and cooled at room temperature for 20-30 min, resulting in a 0.5% soft agar culture medium.
In the super clean bench, D-Hanks was gently added to the surface of the soft agar culture medium, and the D-Hanks was discarded after being gently shaken 2 to 3 times. Cleaning was repeated once. The mouse teratoma cells P19 were gently inoculated on the surface of the soft agar culture medium at a cell density of 4×10^5 cells/well. After the cell inoculation, ethyl p-methoxycinnamate was added to 1 mL of DMEM culture medium containing 10% fetal calf serum, mixed well, and then gently added to the experimental group. A final concentration of ethyl p-methoxycinnamate was 5 μg/mL. The control group was treated with DMSO. […]

CCOC(=O)C=Cc1ccc(OC)cc1 [ethyl p-methoxycinnamate]
formation of microspheres of suspendedly cultured stem cells: the P19 cells can form a higher amount of larger and more typical microspheres

From patent US10723998B2, “Application of ethyl p-methoxycinnamate and derivatives thereof in maintaining self-renewal and pluripotency of stem cells” (NORTHEAST NORMAL UNIVERSITY, priority 2015, dated 2020)
